Data as given in patent US20030105595A1, “Chi square tests for gene expression” (priority 2001, published 2003).

Experiments:
Assay in all cases: multi-sample expression analysis, band intensity
Assay type in all cases: in vivo
Conditions in all cases: Pooled
[1] = tested on: band b1i0_51.7
From the text: (§1) To practice the invention, one skilled in the art obtains a source of biological samples, as well as expression information about the biological samples, i.e., expression information relative to one or more genes or polypeptides encoded therein. Data is collected for a particular phenotype appearing within a given population under study, whereby expression of that phenotype is to be determined within the biological sample under study. The phenotype is correlated to a specific genotype, which is then represented as a band with a given intentity, thus indicative of gene expression levels, and is then compared to control samples. Alternatively, the response of a gene to dosage with one or more drugs is determined by band intensity. The standard deviation from the mean (StdDev) is calculated for the control samples, and is fit to functional form in the following equation: […]
(§2) A multi-sample expression analysis was run using the program described in Example 1. For each drug run, only runs for genes producing bands with a p-value<10^−5 in at least 2 of the following 3 comparisons were selected: low dose versus vehicle, high dose versus vehicle and low dose versus high dose. […] Since clusters found using all 13K bands included some of the best 2K bands, it was concluded that no essential signal was lost (see FIGS. 3 and 4). […] A comparison using the same analytic tests on only the best 2K bands. It can be seen that the Chi Square metric provides a better distinction between low and high doses than the correlation metric, which is not able to distinguish between the low dose and the high dose (see FIG. 6). The low-dose/high dose statistical variation is more pronounced when only the best 2K bands are selected.

[2] = tested on: band b1i0_53.0
From the text: as §1, §2

[3] = tested on: band b1i0_54.5
From the text: as §1, §2

[4] = tested on: band b1i0_57.4
From the text: as §1, §2

[5] = tested on: band b1i0_60.7
From the text: as §1, §2

[6] = tested on: band b1i0_62.5
From the text: as §1, §2

[7] = tested on: band b1i0_63.7
From the text: as §1, §2

[8] = tested on: band b1i0_69.4
From the text: as §1, §2

S=C=Nc1cccc2ccccc12 [ANIT]
band intensity b1i0_51.7 ([1]; High dose, 1d): 23.54 | band intensity b1i0_51.7 ([1]; High dose, 3d): 30.1 | band intensity b1i0_51.7 ([1]; High dose, 7d): 21.57 | band intensity b1i0_51.7 ([1]; Low dose, 1d): 30.7 | band intensity b1i0_51.7 ([1]; Low dose, 3d): 22.37 | band intensity b1i0_51.7 ([1]; Low dose, 7d): 20.67 | band intensity b1i0_51.7 ([1]; Low dose, 14d): 82 | band intensity b1i0_53.0 ([2]; High dose, 1d): 99.5 | band intensity b1i0_53.0 ([2]; High dose, 3d): 84.16 | band intensity b1i0_53.0 ([2]; High dose, 7d): 106.3 | band intensity b1i0_53.0 ([2]; Low dose, 1d): 121.8 | band intensity b1i0_53.0 ([2]; Low dose, 3d): 45.02 | band intensity b1i0_53.0 ([2]; Low dose, 7d): 108.1 | band intensity b1i0_53.0 ([2]; Low dose, 14d): 54.67 | band intensity b1i0_54.5 ([3]; High dose, 1d): 102.2 | band intensity b1i0_54.5 ([3]; High dose, 3d): 114.2 | band intensity b1i0_54.5 ([3]; High dose, 7d): 95.67 | band intensity b1i0_54.5 ([3]; Low dose, 1d): 105.3 | band intensity b1i0_54.5 ([3]; Low dose, 3d): 111.3 | band intensity b1i0_54.5 ([3]; Low dose, 7d): 88.17 | band intensity b1i0_54.5 ([3]; Low dose, 14d): 33.49 | band intensity b1i0_57.4 ([4]; High dose, 1d): 1272 | band intensity b1i0_57.4 ([4]; High dose, 3d): 712.4 | band intensity b1i0_57.4 ([4]; High dose, 7d): 685.8 | band intensity b1i0_57.4 ([4]; Low dose, 1d): 1209.0048 | band intensity b1i0_57.4 ([4]; Low dose, 3d): 1266 | band intensity b1i0_57.4 ([4]; Low dose, 7d): 1303 | band intensity b1i0_57.4 ([4]; Low dose, 14d): 810.7 | band intensity b1i0_60.7 ([5]; High dose, 1d): 74.32 | band intensity b1i0_60.7 ([5]; High dose, 3d): 74.89 | band intensity b1i0_60.7 ([5]; High dose, 7d): 72.63 | band intensity b1i0_60.7 ([5]; Low dose, 1d): 87.08 | band intensity b1i0_60.7 ([5]; Low dose, 3d): 67.38 | band intensity b1i0_60.7 ([5]; Low dose, 7d): 75.42 | band intensity b1i0_60.7 ([5]; Low dose, 14d): 141.7 | band intensity b1i0_62.5 ([6]; High dose, 1d): 49.33 | band intensity b1i0_62.5 ([6]; High dose, 3d): 93.56 | band intensity b1i0_62.5 ([6]; High dose, 7d): 81.4 | band intensity b1i0_62.5 ([6]; Low dose, 1d): 68.44 | band intensity b1i0_62.5 ([6]; Low dose, 3d): 104.9 | band intensity b1i0_62.5 ([6]; Low dose, 7d): 91.61 | band intensity b1i0_62.5 ([6]; Low dose, 14d): 249.3 | band intensity b1i0_63.7 ([7]; High dose, 1d): 50.09 | band intensity b1i0_63.7 ([7]; High dose, 3d): 0.01399 | band intensity b1i0_63.7 ([7]; High dose, 7d): 147.9 | band intensity b1i0_63.7 ([7]; Low dose, 1d): 170.6 | band intensity b1i0_63.7 ([7]; Low dose, 3d): 7.245 | band intensity b1i0_63.7 ([7]; Low dose, 7d): 299.4 | band intensity b1i0_63.7 ([7]; Low dose, 14d): 9.845 | band intensity b1i0_69.4 ([8]; High dose, 1d): 208.6 | band intensity b1i0_69.4 ([8]; High dose, 3d): 284.1 | band intensity b1i0_69.4 ([8]; High dose, 7d): 271.2 | band intensity b1i0_69.4 ([8]; Low dose, 1d): 276.3 | band intensity b1i0_69.4 ([8]; Low dose, 3d): 370.5 | band intensity b1i0_69.4 ([8]; Low dose, 7d): 305.4 | band intensity b1i0_69.4 ([8]; Low dose, 14d): 748.9

O=NN(CCCl)C(=O)NCCCl [BCNU]
band intensity b1i0_51.7 ([1]; High dose, 1d): 29.61 | band intensity b1i0_51.7 ([1]; High dose, 3d): 30.97 | band intensity b1i0_51.7 ([1]; Low dose, 1d): 24.27 | band intensity b1i0_51.7 ([1]; Low dose, 3d): 21.64 | band intensity b1i0_51.7 ([1]; Low dose, 7d): 19.76 | band intensity b1i0_53.0 ([2]; High dose, 1d): 110.8 | band intensity b1i0_53.0 ([2]; High dose, 3d): 118.4 | band intensity b1i0_53.0 ([2]; Low dose, 1d): 117.1 | band intensity b1i0_53.0 ([2]; Low dose, 3d): 98.96 | band intensity b1i0_53.0 ([2]; Low dose, 7d): 104.2 | band intensity b1i0_54.5 ([3]; High dose, 1d): 112.4 | band intensity b1i0_54.5 ([3]; High dose, 3d): 112.1 | band intensity b1i0_54.5 ([3]; Low dose, 1d): 102.8 | band intensity b1i0_54.5 ([3]; Low dose, 3d): 103.6 | band intensity b1i0_54.5 ([3]; Low dose, 7d): 108.2 | band intensity b1i0_57.4 ([4]; High dose, 1d): 1154 | band intensity b1i0_57.4 ([4]; High dose, 3d): 1296 | band intensity b1i0_57.4 ([4]; Low dose, 1d): 1235 | band intensity b1i0_57.4 ([4]; Low dose, 3d): 1367 | band intensity b1i0_57.4 ([4]; Low dose, 7d): 1345 | band intensity b1i0_60.7 ([5]; High dose, 1d): 78.55 | band intensity b1i0_60.7 ([5]; High dose, 3d): 115.4 | band intensity b1i0_60.7 ([5]; Low dose, 1d): 88.97 | band intensity b1i0_60.7 ([5]; Low dose, 3d): 80.09 | band intensity b1i0_60.7 ([5]; Low dose, 7d): 96.79 | band intensity b1i0_62.5 ([6]; High dose, 1d): 67.75 | band intensity b1i0_62.5 ([6]; High dose, 3d): 84.85 | band intensity b1i0_62.5 ([6]; Low dose, 1d): 69.48 | band intensity b1i0_62.5 ([6]; Low dose, 3d): 57.9 | band intensity b1i0_62.5 ([6]; Low dose, 7d): 82.58 | band intensity b1i0_63.7 ([7]; High dose, 1d): 98.18 | band intensity b1i0_63.7 ([7]; High dose, 3d): 115.1 | band intensity b1i0_63.7 ([7]; Low dose, 1d): 155.4 | band intensity b1i0_63.7 ([7]; Low dose, 3d): 104.2 | band intensity b1i0_63.7 ([7]; Low dose, 7d): 204.2 | band intensity b1i0_69.4 ([8]; High dose, 1d): 194.3 | band intensity b1i0_69.4 ([8]; High dose, 3d): 219.1 | band intensity b1i0_69.4 ([8]; Low dose, 1d): 254 | band intensity b1i0_69.4 ([8]; Low dose, 3d): 292.1 | band intensity b1i0_69.4 ([8]; Low dose, 7d): 325.1

Cc1cc(C(C)(C)C)c(O)c(C(C)(C)C)c1 [BHT]
band intensity b1i0_51.7 ([1]; High dose, 1d): 24.21 | band intensity b1i0_51.7 ([1]; High dose, 3d): 25.0702 | band intensity b1i0_51.7 ([1]; High dose, 7d): 17.72 | band intensity b1i0_51.7 ([1]; High dose, 14d): 26.78 | band intensity b1i0_51.7 ([1]; Low dose, 1d): 18.78 | band intensity b1i0_51.7 ([1]; Low dose, 3d): 18.02 | band intensity b1i0_51.7 ([1]; Low dose, 7d): 12.13 | band intensity b1i0_51.7 ([1]; Low dose, 14d): 18.31 | band intensity b1i0_53.0 ([2]; High dose, 1d): 104.3 | band intensity b1i0_53.0 ([2]; High dose, 3d): 101.7 | band intensity b1i0_53.0 ([2]; High dose, 7d): 104.1 | band intensity b1i0_53.0 ([2]; High dose, 14d): 82.87 | band intensity b1i0_53.0 ([2]; Low dose, 1d): 108.8 | band intensity b1i0_53.0 ([2]; Low dose, 3d): 87.18 | band intensity b1i0_53.0 ([2]; Low dose, 7d): 104.5 | band intensity b1i0_53.0 ([2]; Low dose, 14d): 96.38 | band intensity b1i0_54.5 ([3]; High dose, 1d): 82.82 | band intensity b1i0_54.5 ([3]; High dose, 3d): 96.92 | band intensity b1i0_54.5 ([3]; High dose, 7d): 81.74 | band intensity b1i0_54.5 ([3]; High dose, 14d): 93.42 | band intensity b1i0_54.5 ([3]; Low dose, 1d): 93.97 | band intensity b1i0_54.5 ([3]; Low dose, 3d): 101.5 | band intensity b1i0_54.5 ([3]; Low dose, 7d): 92.42 | band intensity b1i0_54.5 ([3]; Low dose, 14d): 91.73 | band intensity b1i0_57.4 ([4]; High dose, 1d): 1177 | band intensity b1i0_57.4 ([4]; High dose, 3d): 1235 | band intensity b1i0_57.4 ([4]; High dose, 7d): 990.2 | band intensity b1i0_57.4 ([4]; High dose, 14d): 1049 | band intensity b1i0_57.4 ([4]; Low dose, 1d): 1182 | band intensity b1i0_57.4 ([4]; Low dose, 3d): 1224 | band intensity b1i0_57.4 ([4]; Low dose, 7d): 1156 | band intensity b1i0_57.4 ([4]; Low dose, 14d): 1229 | band intensity b1i0_60.7 ([5]; High dose, 1d): 71.52 | band intensity b1i0_60.7 ([5]; High dose, 3d): 70.09 | band intensity b1i0_60.7 ([5]; High dose, 7d): 62.31 | band intensity b1i0_60.7 ([5]; High dose, 14d): 68.41 | band intensity b1i0_60.7 ([5]; Low dose, 1d): 72.36 | band intensity b1i0_60.7 ([5]; Low dose, 3d): 69.13 | band intensity b1i0_60.7 ([5]; Low dose, 7d): 79.01 | band intensity b1i0_60.7 ([5]; Low dose, 14d): 90.11 | band intensity b1i0_62.5 ([6]; High dose, 1d): 81.06 | band intensity b1i0_62.5 ([6]; High dose, 3d): 56.24 | band intensity b1i0_62.5 ([6]; High dose, 7d): 81.59 | band intensity b1i0_62.5 ([6]; High dose, 14d): 57.74 | band intensity b1i0_62.5 ([6]; Low dose, 1d): 74.66 | band intensity b1i0_62.5 ([6]; Low dose, 3d): 70.37 | band intensity b1i0_62.5 ([6]; Low dose, 7d): 62.54 | band intensity b1i0_62.5 ([6]; Low dose, 14d): 63.7 | band intensity b1i0_63.7 ([7]; High dose, 1d): 240.7 | band intensity b1i0_63.7 ([7]; High dose, 3d): 120.1 | band intensity b1i0_63.7 ([7]; High dose, 7d): 313.4 | band intensity b1i0_63.7 ([7]; High dose, 14d): 41.88 | band intensity b1i0_63.7 ([7]; Low dose, 1d): 152.6 | band intensity b1i0_63.7 ([7]; Low dose, 3d): 171.4 | band intensity b1i0_63.7 ([7]; Low dose, 7d): 132.3 | band intensity b1i0_63.7 ([7]; Low dose, 14d): 161.6 | band intensity b1i0_69.4 ([8]; High dose, 1d): 241.7 | band intensity b1i0_69.4 ([8]; High dose, 3d): 251.2 | band intensity b1i0_69.4 ([8]; High dose, 7d): 255.9 | band intensity b1i0_69.4 ([8]; High dose, 14d): 268.8 | band intensity b1i0_69.4 ([8]; Low dose, 1d): 272.5 | band intensity b1i0_69.4 ([8]; Low dose, 3d): 190.6 | band intensity b1i0_69.4 ([8]; Low dose, 7d): 282.9 | band intensity b1i0_69.4 ([8]; Low dose, 14d): 286.5
